# Test results reported in publication PMC6748410, “A phase 2 study of an oral mTORC1/mTORC2 kinase inhibitor (CC-223) for non-pancreatic neuroendocrine tumors with or without carcinoid symptoms” (PLoS ONE, 2019).
# Tests used:
# [1] = tested on: serum hormones (CgA, gastrin, glucagon, serotonin); assay: Serum hormone changes from baseline; format: in vivo, human; conditions: among 35 patients with elevated baseline levels in at least one hormone
# Procedure: Central laboratories conducted serial stimulated blood biomarker assays in monocytes (CD14+) for p4E-BP1 and pPKB (also known as pAKT) for assessment of mTORC1 and mTORC2 inhibition, respectively. Monthly changes from baseline for chromogranin A (CgA), and for other serum hormones if elevated, were assayed locally.
# This phase 1/2 study was not powered for inferential statistics and mostly descriptive statistics were used. All patients dosed with CC-223 were included in the safety analysis. The efficacy analysis included all patients completing at least one cycle of drug who had both baseline and one post-baseline tumor efficacy assessment, unless otherwise specified. Categorical baseline variables including tumor type-specific characteristics were summarized using frequency counts and percentage. Continuous demographic and baseline characteristic variables were summarized by descriptive statistics. A Wilcoxon signed rank test was used to analyse change from baseline in serum hormone levels at selected scheduled visits.
# [2] = Treatment-related adverse events and tolerability (CTCAE v4.0) in patients with NET; format: in vivo
# Procedure: CC-223 capsules were taken orally once daily in continuous 28-day cycles. An initial cohort started CC-223 at a dose of 45 mg; this was the maximum tolerated dose (MTD) established in phase 1 but, after observing a high rate of dose adjustments due to toxicity among patients with NET, a second cohort started CC-223 at 30 mg. To mitigate toxicity, dosage could be adjusted with either short interruptions, dose level reductions, or every-other-day administration. Treatment was permanently discontinued for disease progression, unmanageable toxicity, patient withdrawal of consent, or other reasons specified by the protocol as requiring study withdrawal.
# Baseline assessments were completed within 28 days prior to first dose of CC-223. Drug tolerability was continuously evaluated until 28 days after the last dose, using clinical event and laboratory test monitoring comprising a conventional hematologic and coagulation (if taking anti-coagulants) panel; serum electrolytes; fasting blood glucose (this also included daily self-monitoring with finger stick samples for the first month and for longer if necessary), HbA1c, insulin, and c-peptide; liver enzymes; serum creatinine; and protein. Others included serum uric acid, amylase and lipase, lipoproteins, thyroid function tests, creatine kinase, and immunoglobulins including T-cell subsets (CD4+ and CD8+). We also performed serial triplicate electrocardiograms (ECGs), periodic left ventricular ejection fraction estimations (echo or multiple gated acquisition [MUGA]), regular physical exams and vital sign measurements (heart rate, blood pressure, respiratory rate, and temperature). Adverse events were coded with Medical Dictionary for Regulatory Activities (MedDRA) version 19.0. Severity of adverse events was classified using the National Cancer Institute Common Terminology Criteria for Adverse Events (CTCAE) version 4.0. A safety review committee provided study oversight.
# [3] = 30 mg starting dose (n = 23), any grade
# [4] = 45 mg starting dose (n = 24), any grade
compound,measurement,setting,value
CO[C@H]1CC[C@H](N2C(=O)CNc3ncc(-c4ccc(C(C)(C)O)nc4)nc32)CC1 [CC-223],Patients with ≥50% decline from baseline in CgA,[1],7 patients
same,Patients with ≥50% decline from baseline in gastrin,[1],6 patients
same,Patients with ≥50% decline from baseline in glucagon,[1],3 patients
same,Patients with ≥50% decline from baseline in serotonin,[1],2 patients
same,Patients requiring 1 dose reduction,[2]; 30 mg group (n = 23),11 patients
same,Patients requiring 2 dose reductions,[2]; 30 mg group (n = 23),7 patients
same,Patients requiring more than 2 dose reductions,[2]; 30 mg group (n = 23),0 patients
same,Treatment-related adverse event: AST increased,[2]; [3],3 (13.0) n (%)
same,Treatment-related adverse event: Abdominal pain,[2]; [3],2 (8.7) n (%)
same,Treatment-related adverse event: Asthenia,[2]; [3],7 (30.4) n (%)
same,Treatment-related adverse event: Blood creatinine increased,[2]; [3],4 (17.4) n (%)
same,Treatment-related adverse event: Decreased appetite,[2]; [3],4 (17.4) n (%)
same,Treatment-related adverse event: Dehydration,[2]; [3],4 (17.4) n (%)
same,Treatment-related adverse event: Diarrhea,[2]; [3],17 (73.9) n (%)
same,Treatment-related adverse event: Dry mouth,[2]; [3],2 (8.7) n (%)
same,Treatment-related adverse event: Dysgeusia,[2]; [3],3 (13.0) n (%)
same,Treatment-related adverse event: Fatigue,[2]; [3],17 (73.9) n (%)
same,Treatment-related adverse event: Hyperglycemia,[2]; [3],5 (21.7) n (%)
same,Treatment-related adverse event: Maculopapular rash,[2]; [3],3 (13.0) n (%)
same,Treatment-related adverse event: Malaise,[2]; [3],3 (13.0) n (%)
same,Treatment-related adverse event: Mucosal inflammation,[2]; [3],3 (13.0) n (%)
same,Treatment-related adverse event: Nausea,[2]; [3],6 (26.1) n (%)
same,Treatment-related adverse event: Pruritus,[2]; [3],7 (30.4) n (%)
same,Treatment-related adverse event: Rash,[2]; [3],6 (26.1) n (%)
same,Treatment-related adverse event: Rash macular,[2]; [3],2 (8.7) n (%)
same,Treatment-related adverse event: Stomatitis,[2]; [3],11 (47.8) n (%)
same,Treatment-related adverse event: Vomiting,[2]; [3],2 (8.7) n (%)
same,Patients requiring 1 dose reduction,[2]; 45 mg group (n = 24),3 patients
same,Patients requiring more than 2 dose reductions,[2]; 45 mg group (n = 24),2 patients
same,Tolerability in the NET cohort,[2]; 45 mg once daily,not well-tolerated
same,Treatment-related adverse event: AST increased,[2]; [4],2 (8.3) n (%)
same,Treatment-related adverse event: Abdominal pain,[2]; [4],3 (12.5) n (%)
same,Treatment-related adverse event: Asthenia,[2]; [4],4 (16.7) n (%)
same,Treatment-related adverse event: Blood creatinine increased,[2]; [4],3 (12.5) n (%)
same,Treatment-related adverse event: Decreased appetite,[2]; [4],8 (33.3) n (%)
same,Treatment-related adverse event: Dehydration,[2]; [4],4 (16.7) n (%)
same,Treatment-related adverse event: Diarrhea,[2]; [4],19 (79.2) n (%)
same,Treatment-related adverse event: Dry mouth,[2]; [4],5 (20.8) n (%)
same,Treatment-related adverse event: Dysgeusia,[2]; [4],5 (20.8) n (%)
same,Treatment-related adverse event: Fatigue,[2]; [4],14 (58.3) n (%)
same,Treatment-related adverse event: Hyperglycemia,[2]; [4],8 (33.3) n (%)
same,Treatment-related adverse event: Maculopapular rash,[2]; [4],9 (37.5) n (%)
same,Treatment-related adverse event: Malaise,[2]; [4],4 (16.7) n (%)
same,Treatment-related adverse event: Mucosal inflammation,[2]; [4],3 (12.5) n (%)
same,Treatment-related adverse event: Nausea,[2]; [4],12 (50.0) n (%)
same,Treatment-related adverse event: Pruritus,[2]; [4],12 (50.0) n (%)
same,Treatment-related adverse event: Rash,[2]; [4],12 (50.0) n (%)
same,Treatment-related adverse event: Rash macular,[2]; [4],4 (16.7) n (%)
same,Treatment-related adverse event: Stomatitis,[2]; [4],14 (58.3) n (%)
same,Treatment-related adverse event: Vomiting,[2]; [4],5 (20.8) n (%)
same,Patients with one or more serious adverse event related to CC-223,[2]; 8 of 47 patients,17%
same,Patients who remained on the dose initially assigned,[2]; 12 of 47 patients,26%
same,Treatment-related adverse event: AST increased,"[2]; Any dose (N = 47), Grade 3",2 (4.3) n (%)
same,Treatment-related adverse event: Abdominal pain,"[2]; Any dose (N = 47), Grade 3",1 (2.1) n (%)
same,Treatment-related adverse event: Asthenia,"[2]; Any dose (N = 47), Grade 3",3 (6.4) n (%)
same,Treatment-related adverse event: Blood creatinine increased,"[2]; Any dose (N = 47), Grade 3",1 (2.1) n (%)
same,Treatment-related adverse event: Decreased appetite,"[2]; Any dose (N = 47), Grade 3",1 (2.1) n (%)
same,Treatment-related adverse event: Dehydration,"[2]; Any dose (N = 47), Grade 3",1 (2.1) n (%)
same,Treatment-related adverse event: Diarrhea,"[2]; Any dose (N = 47), Grade 3",18 (38.3) n (%)
same,Treatment-related adverse event: Dry mouth,"[2]; Any dose (N = 47), Grade 3",0 n (%)
same,Treatment-related adverse event: Dysgeusia,"[2]; Any dose (N = 47), Grade 3",0 n (%)
same,Treatment-related adverse event: Fatigue,"[2]; Any dose (N = 47), Grade 3",10 (21.3) n (%)
same,Treatment-related adverse event: Hyperglycemia,"[2]; Any dose (N = 47), Grade 3",0 n (%)
same,Treatment-related adverse event: Maculopapular rash,"[2]; Any dose (N = 47), Grade 3",3 (6.4) n (%)
same,Treatment-related adverse event: Malaise,"[2]; Any dose (N = 47), Grade 3",0 n (%)
same,Treatment-related adverse event: Mucosal inflammation,"[2]; Any dose (N = 47), Grade 3",0 n (%)
same,Treatment-related adverse event: Nausea,"[2]; Any dose (N = 47), Grade 3",1 (2.1) n (%)
same,Treatment-related adverse event: Pruritus,"[2]; Any dose (N = 47), Grade 3",2 (4.3) n (%)
same,Treatment-related adverse event: Rash,"[2]; Any dose (N = 47), Grade 3",1 (2.1) n (%)
same,Treatment-related adverse event: Rash macular,"[2]; Any dose (N = 47), Grade 3",1 (2.1) n (%)
same,Treatment-related adverse event: Stomatitis,"[2]; Any dose (N = 47), Grade 3",5 (10.6) n (%)
same,Treatment-related adverse event: Vomiting,"[2]; Any dose (N = 47), Grade 3",2 (4.3) n (%)
same,Treatment-related adverse event: AST increased,"[2]; Any dose (N = 47), any grade",5 (10.6) n (%)
same,Treatment-related adverse event: Abdominal pain,"[2]; Any dose (N = 47), any grade",5 (10.6) n (%)
same,Treatment-related adverse event: Asthenia,"[2]; Any dose (N = 47), any grade",11 (23.4) n (%)
same,Treatment-related adverse event: Blood creatinine increased,"[2]; Any dose (N = 47), any grade",7 (14.9) n (%)
same,Treatment-related adverse event: Decreased appetite,"[2]; Any dose (N = 47), any grade",12 (25.5) n (%)
same,Treatment-related adverse event: Dehydration,"[2]; Any dose (N = 47), any grade",8 (17.0) n (%)
same,Treatment-related adverse event: Diarrhea,"[2]; Any dose (N = 47), any grade",36 (76.6) n (%)
same,Treatment-related adverse event: Dry mouth,"[2]; Any dose (N = 47), any grade",7 (14.9) n (%)
same,Treatment-related adverse event: Dysgeusia,"[2]; Any dose (N = 47), any grade",8 (17.0) n (%)
same,Treatment-related adverse event: Fatigue,"[2]; Any dose (N = 47), any grade",31 (66.0) n (%)
same,Treatment-related adverse event: Hyperglycemia,"[2]; Any dose (N = 47), any grade",13 (27.7) n (%)
same,Treatment-related adverse event: Maculopapular rash,"[2]; Any dose (N = 47), any grade",12 (25.5) n (%)
same,Treatment-related adverse event: Malaise,"[2]; Any dose (N = 47), any grade",7 (14.9) n (%)
same,Treatment-related adverse event: Mucosal inflammation,"[2]; Any dose (N = 47), any grade",6 (12.8) n (%)
same,Treatment-related adverse event: Nausea,"[2]; Any dose (N = 47), any grade",18 (38.3) n (%)
same,Treatment-related adverse event: Pruritus,"[2]; Any dose (N = 47), any grade",19 (40.4) n (%)
same,Treatment-related adverse event: Rash,"[2]; Any dose (N = 47), any grade",18 (38.3) n (%)
same,Treatment-related adverse event: Rash macular,"[2]; Any dose (N = 47), any grade",6 (12.8) n (%)
same,Treatment-related adverse event: Stomatitis,"[2]; Any dose (N = 47), any grade",25 (53.2) n (%)
same,Treatment-related adverse event: Vomiting,"[2]; Any dose (N = 47), any grade",7 (14.9) n (%)
same,Most common TRAEs: asthenia,"[2]; any grade, n = 47",23%
same,Most common TRAEs: decreased appetite,"[2]; any grade, n = 47",26%
same,Most common TRAEs: diarrhea,"[2]; any grade, n = 47",77%
same,Most common TRAEs: fatigue,"[2]; any grade, n = 47",66%
same,Most common TRAEs: hyperglycemia,"[2]; any grade, n = 47",28%
same,Most common TRAEs: maculopapular rash,"[2]; any grade, n = 47",26%
same,Most common TRAEs: nausea,"[2]; any grade, n = 47",38%
same,Most common TRAEs: pruritus,"[2]; any grade, n = 47",40%
same,Most common TRAEs: rash,"[2]; any grade, n = 47",38%
same,Most common TRAEs: stomatitis,"[2]; any grade, n = 47",53%
same,Patients who reported at least one treatment-related adverse event (TRAE),"[2]; by investigator determination, n = 47",98%
same,Patients with doses reduced for extended periods to levels as low as 15 mg,"[2]; human, in vivo",45%
same,Deaths on study due to treatment-related toxicity,[2]; n = 47,No patient died
same,Grade 3 or higher toxicity: diarrhea,[2]; n = 47,38%
same,Grade 3 or higher toxicity: fatigue,[2]; n = 47,21%
same,Grade 3 or higher toxicity: stomatitis,[2]; n = 47,11%
same,Grade 4 or 5 toxicities among the most common adverse events,[2]; n = 47,no grade 4 or 5 toxicities reported
same,Patients who discontinued CC-223 because of toxicity,[2]; n = 47,13%
same,Patients who experienced grade 3 or 4 treatment-related events,[2]; n = 47,79%
same,Patients who required dose adjustments due to toxicity,[2]; n = 47,85%
same,Toxicity causing discontinuation: decreased appetite,[2]; n = 47,6%
same,Toxicity causing discontinuation: diarrhea,[2]; n = 47,9%
same,Toxicity causing discontinuation: nausea,[2]; n = 47,4%
same,Toxicity requiring dose adjustments: diarrhea,[2]; n = 47,40%
same,Toxicity requiring dose adjustments: fatigue,[2]; n = 47,17%
same,Toxicity requiring dose adjustments: increased blood creatinine,[2]; n = 47,13%
same,Toxicity requiring dose adjustments: stomatitis,[2]; n = 47,17%
same,Patients requiring 2 dose reductions,"[2]; overall, n = 47",19 patients
same,Patients requiring more than 2 dose reductions,"[2]; overall, n = 47",4 patients
same,Mean time to first dose reduction,"[2]; overall, range 8–589 days",46 days
